SMILES strings stand for the structures.

The subject of data set [1] is amphioxus steroid receptor (SR). The conditions noted are these: cited from earlier work.
A further data set has as its target T1, elephant shark ERb (Callorhinchus milii, UniProt A0A1V1FJE9).
T1 sequence (A0A1V1FJE9 1-580): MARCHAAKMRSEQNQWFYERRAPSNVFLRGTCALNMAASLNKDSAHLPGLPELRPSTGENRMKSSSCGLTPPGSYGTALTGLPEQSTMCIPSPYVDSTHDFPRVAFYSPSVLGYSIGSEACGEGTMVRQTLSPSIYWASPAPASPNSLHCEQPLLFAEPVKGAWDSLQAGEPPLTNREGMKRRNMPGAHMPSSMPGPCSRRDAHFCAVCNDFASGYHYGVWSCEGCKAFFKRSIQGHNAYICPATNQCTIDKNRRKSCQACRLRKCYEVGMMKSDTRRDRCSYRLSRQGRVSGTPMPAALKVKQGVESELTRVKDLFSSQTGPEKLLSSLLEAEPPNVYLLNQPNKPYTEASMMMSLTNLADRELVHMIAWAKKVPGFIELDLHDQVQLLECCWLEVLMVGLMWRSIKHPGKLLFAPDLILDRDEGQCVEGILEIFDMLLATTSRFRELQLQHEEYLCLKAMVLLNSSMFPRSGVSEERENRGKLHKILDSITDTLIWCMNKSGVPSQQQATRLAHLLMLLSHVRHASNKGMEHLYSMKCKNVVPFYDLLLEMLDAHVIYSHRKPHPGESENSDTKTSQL
Description: cell-based. As to the method:
(§1) Full-length estrogen receptors were amplified using specific forward and reverse primers designed at start and stop codons and cloned into the mammalian expression vector pcDNA3.1 (Invitrogen). In addition, ERs with a FLAG-tag added to the N-terminus were also prepared by PCR. A reporter construct, pGL4.23-4xERE, was produced by subcloning of oligonucleotides having 4xERE into the KpnI-HindIII site of pGL4.23 vector (Promega, Madison, WI, USA). All cloned DNA sequences were verified by sequencing.
(§2) Reporter gene assays using full-length ERs were performed in Human Embryonic Kidney 293 cells (HEK293 cells). HEK293 cells were seeded in 24-well plates at 5 × 10^4 cells/well in phenol-red-free Dulbecco’s modified Eagle’s medium with 10% charcoal/dextran-treated fetal bovine serum. After 24 h, the cells were transfected with 400 ng of reporter construct, 25 ng of pRL-TK (as an internal control to normalize the variation in transfection efficiency; contains the Renilla reniformis luciferase gene with the herpes simplex virus thymidine kinase promoter), and 200 ng of pcDNA3.1-estrogen receptor using polyethylenimine (PEI). After 5 h of incubation, ligands were applied to the medium at various concentrations. After an additional 43 h, the cells were collected, and the luciferase activity of the cells was measured with the Dual-Luciferase Reporter Assay System. Promoter activity was calculated as firefly (Photinus pyralis) luciferase activity/sea pansy (R. reniformis) luciferase activity. […] All experiments were performed in triplicate.
(§3) Elephant shark ERs were transfected into HEK293 cells with an ERE-driven reporter gene. […] Data are expressed as a ratio of a vehicle (DMSO) to other test chemicals. Each point represents the mean of triplicate determinations, and vertical bars represent the mean ± SEM.

The subject of another data set is Atlantic sea lamprey ER. The conditions noted are these: cited from earlier work.
The target of the next data set is T2, elephant shark ERa1 (Callorhinchus milii, UniProt A0A1V1FR36).
T2 sequence (A0A1V1FR36 1-596): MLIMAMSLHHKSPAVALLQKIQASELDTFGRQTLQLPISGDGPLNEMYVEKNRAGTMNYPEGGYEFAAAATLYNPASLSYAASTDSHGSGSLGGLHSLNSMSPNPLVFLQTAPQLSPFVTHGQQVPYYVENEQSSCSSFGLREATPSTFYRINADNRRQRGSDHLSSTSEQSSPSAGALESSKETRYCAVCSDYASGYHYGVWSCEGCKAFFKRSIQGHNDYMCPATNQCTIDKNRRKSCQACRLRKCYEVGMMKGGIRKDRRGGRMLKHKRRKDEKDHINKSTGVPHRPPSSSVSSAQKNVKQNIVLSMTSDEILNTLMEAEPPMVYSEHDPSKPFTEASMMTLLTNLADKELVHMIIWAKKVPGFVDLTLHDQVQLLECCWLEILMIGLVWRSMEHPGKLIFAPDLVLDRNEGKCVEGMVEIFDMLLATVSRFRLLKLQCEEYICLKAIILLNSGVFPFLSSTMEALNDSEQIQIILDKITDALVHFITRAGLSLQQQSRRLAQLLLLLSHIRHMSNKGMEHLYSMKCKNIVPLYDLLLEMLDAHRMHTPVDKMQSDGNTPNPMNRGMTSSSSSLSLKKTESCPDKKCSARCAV
Description: cell-based. How it is done:
as §1, §2, §3

The next data set deals with T3, elephant shark ERa3 (Callorhinchus milii, UniProt A0A1V1FR36).
T3 sequence (A0A1V1FR36 1-596): T2 sequence (A0A1V1FR36 1-596)
As to the method:
as §1, §2, §3

Another data set has as its target T4, elephant shark ERa2 (Callorhinchus milii, UniProt A0A1V1FR36).
T4 sequence (A0A1V1FR36 1-596): T2 sequence (A0A1V1FR36 1-596)
As to the method: as §1, §2, §3

The next data set relates to elephant shark ERa4. Description: Transcriptional activation of ERa4. Format: cell-based, elephant shark (Callorhynchus milii). The note with it: ERa4 has a deletion in the DNA-binding domain. How it is done: as §1
Reporter gene assays using full-length ERs were performed in Human Embryonic Kidney 293 cells (HEK293 cells). HEK293 cells were seeded in 24-well plates at 5 × 10^4 cells/well in phenol-red-free Dulbecco’s modified Eagle’s medium with 10% charcoal/dextran-treated fetal bovine serum. […] After an additional 43 h, the cells were collected, and the luciferase activity of the cells was measured with the Dual-Luciferase Reporter Assay System. Promoter activity was calculated as firefly (Photinus pyralis) luciferase activity/sea pansy (R. reniformis) luciferase activity. The values shown are mean ± SEM from three separate experiments, and dose–response data, which were used to calculate the half-maximal response (EC50) for each steroid, were analyzed using GraphPad Prism (Version 11, GraphPad Software, Inc., San Diego, CA, USA). […]

The test system of another data set is amphioxus ER. The note with it: cited from earlier work.
The mark [2] stands for this setting: HEK293, 43 h, read-out: Fold-Activation (±SEM).

On to `C[C@]12CC[C@@H]3c4ccc(O)cc4CC[C@H]3[C@@H]1CCC2=O` [E1, Estrone], for which the “Transcriptional activation of amphioxus SR” value in data set [1] is “transcriptional activators”. In addition, a half-maximal response on elephant shark ERb (EC50) required 0.14 nM. Moreover, in the data set with Atlantic sea lamprey ER, the “Activation of Atlantic sea lamprey ER” value was “activated”.
For `C[C@]12CC[C@@H]3c4ccc(O)cc4CC[C@H]3[C@@H]1C[C@@H](O)[C@@H]2O` [E3, estriol], the EC50 on elephant shark ERa1 stood at 0.2 nM; on elephant shark ERb, 0.02 nM; at elephant shark ERa3 (read-out: EC50 for transcriptional activation, ERa3 in HEK293, 4xERE luciferase reporter), 0.29 nM; on elephant shark ERa2 (read-out: EC50 for transcriptional activation, ERa2 in HEK293, 4xERE luciferase reporter), 0.31 nM. For the same compound, the “Ratio (fold-activation of each estrogen divided by the value of E2)” value at elephant shark ERa1 (ERa1 in HEK293, 10 nM) was 0.95; at elephant shark ERb (ERb in HEK293, 10 nM), 1.08; on elephant shark ERa3 (ERa3 in HEK293, 10 nM) it was 1.07; at elephant shark ERa2 (ERa2 in HEK293, 10 nM) it was 1.02. For the same compound, the fold induction at 0.01 µM on elephant shark ERa1 (setting [2]) came to 1.57; on elephant shark ERb (setting [2]), 3.49. The “Fold-Activation (±SEM)” value is 1.87 (±0.15) at elephant shark ERa3 (ERa3 in HEK293, based on the 10 nM values, ratio to vehicle (DMSO), 2580 min) and 1.82 (±0.13) at elephant shark ERa2 (ERa2 in HEK293, based on the 10 nM values, ratio to vehicle (DMSO), 2580 min).
As for `C[C@]12CC[C@@H]3c4ccc(O)cc4CC[C@H]3[C@@H]1CC[C@@H]2O` [E2, 17b-estradiol], in data set [1], the “Transcriptional activation of amphioxus SR” value is recorded as “transcriptional activators”. Also, the “Transcriptional activation of ERa4” value in the data set on elephant shark ERa4 is “lack of transcriptional activation”. The “Activation of Atlantic sea lamprey ER” value with Atlantic sea lamprey ER is on record as “activated”. The “Binding to amphioxus ER” value in the data set with amphioxus ER is reported as “does not bind”.

As usually defined, the EC50 is the concentration needed to bring the measured effect to its halfway point.

The values above are taken from paper PMC13026664, “Transcriptional Activation of Estrogen Receptor-Alpha and Estrogen Receptor-Beta from Elephant Shark (Callorhynchus milii)” (Genes, 2026).
